Test [1] concerns the target T1, Human cyclooxygenase 2 (COX-2) (Homo sapiens, UniProt P35354).
T1 sequence (P35354 18-604): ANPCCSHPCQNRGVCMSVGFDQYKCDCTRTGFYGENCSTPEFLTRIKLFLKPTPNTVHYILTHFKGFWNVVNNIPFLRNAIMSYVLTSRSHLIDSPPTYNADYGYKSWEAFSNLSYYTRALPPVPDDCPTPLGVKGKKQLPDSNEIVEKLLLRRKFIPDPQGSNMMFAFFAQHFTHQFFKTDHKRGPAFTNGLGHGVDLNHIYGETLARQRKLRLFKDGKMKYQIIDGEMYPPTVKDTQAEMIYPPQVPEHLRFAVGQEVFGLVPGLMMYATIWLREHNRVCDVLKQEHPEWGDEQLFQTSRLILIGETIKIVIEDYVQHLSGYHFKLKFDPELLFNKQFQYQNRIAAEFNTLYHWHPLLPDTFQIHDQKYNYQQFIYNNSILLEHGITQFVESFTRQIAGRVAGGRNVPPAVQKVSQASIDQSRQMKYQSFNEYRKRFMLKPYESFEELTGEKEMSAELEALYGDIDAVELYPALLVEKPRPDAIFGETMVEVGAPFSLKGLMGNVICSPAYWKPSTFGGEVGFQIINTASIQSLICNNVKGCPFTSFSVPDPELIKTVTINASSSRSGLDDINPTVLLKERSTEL
Briefly: COX-2 inhibition, microsomal assay. The conditions noted are these: 20 min, read-out: % Inhibition of COX Enzymes in Microsomal Assays, COX-2. As for the experimental part: (§1) Human cyclooxygenase 1 and 2 are expressed in a baculovirus expression system using High 5 insect cells. Microsomal fractions prepared from the cells are stored at -80° C. The assays are performed at room temperature in phosphate buffered saline. After incubating the COX-1 or COX-2 microsomes with hematin (2 μM), phenol (0.5 mM) and reduced glutathione (1 mM) for 5 minutes, inhibitor or DMSO vehicle is added and allowed to incubate for 20 minutes. Arachidonic acid (2 μM) is added and after 20 minutes the reaction is stopped by the addition of HCl (0.1 N HCl final concentration).
(§2) The inhibitory activities against COX-1 and COX-2 of the compounds described in the above Synthetic Examples were determined using the two in vitro assays described above.

The target of test [2] is Human cyclooxygenase 1 (COX-1) (Homo sapiens, UniProt P23219). Briefly: COX-1 inhibition, microsomal assay. The conditions noted are these: 20 min, read-out: % Inhibition of COX Enzymes in Microsomal Assays, COX-1. Here is the method: as §1, §2
Chain of Human cyclooxygenase 1 (COX-1) (P23219 24-599): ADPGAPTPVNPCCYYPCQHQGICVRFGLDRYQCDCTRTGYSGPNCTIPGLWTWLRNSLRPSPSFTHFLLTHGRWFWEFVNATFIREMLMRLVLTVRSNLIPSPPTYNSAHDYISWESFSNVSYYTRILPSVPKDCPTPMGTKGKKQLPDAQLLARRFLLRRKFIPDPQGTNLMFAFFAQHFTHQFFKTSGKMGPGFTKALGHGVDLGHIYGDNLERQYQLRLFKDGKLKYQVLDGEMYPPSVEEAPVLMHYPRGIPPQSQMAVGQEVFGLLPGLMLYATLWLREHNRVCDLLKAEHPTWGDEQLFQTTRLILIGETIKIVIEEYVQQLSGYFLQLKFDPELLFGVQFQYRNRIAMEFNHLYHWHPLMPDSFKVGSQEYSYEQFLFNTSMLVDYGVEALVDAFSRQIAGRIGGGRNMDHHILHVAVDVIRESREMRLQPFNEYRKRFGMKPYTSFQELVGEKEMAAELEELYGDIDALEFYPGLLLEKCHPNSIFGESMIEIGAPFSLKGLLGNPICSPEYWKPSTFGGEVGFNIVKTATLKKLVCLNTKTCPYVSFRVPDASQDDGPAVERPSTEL
In another test the target is T2, human recombinant COX-2 (Homo sapiens, UniProt P35354).
T2 construct: expressed in transfected cells; host or cells: Cos-A2 cells, stably transfected
T2 sequence (P35354 18-604): T1 sequence (P35354 18-604)
The experiment in a line: COX-2 inhibition, COS cell assay. Type of test: cell-based. The conditions noted are these: for pIC50: COS cells, COX-2, read-out: Inhibition of COX Enzymes in COS Cell Assays, COX-2 IC50; for inhibition at 0.1 µM / inhibition at 1 µM / inhibition at 10 µM: COS, read-out: Inhibition of COX Enzymes in COS Cell Assays, COX-2 % inhibition. As for the experimental part:
(§3) Cos-A2 cells stably transfected with human recombinant COX-1 or COX-2 are cultured in 96 well tissue culture plates with Dulbecco's Modified Eagle Medium supplemented with 10% fetal bovine serum, glutamine (2 mM), penicillin (50 U/mL), streptomycin ([…]) and geneticin (400 μg/mL). Media is removed from confluent monolayers and the cells are washed twice with Hank's buffered saline solution. Fresh HBSS is added, with or without inhibitor, and the cells are incubated for 30 minutes at 37° C. Arachidonic acid (30 μM) is then added and the cells are incubated for an additional one hour at 37° C. Individual experiments represent a mean of triplicate wells for control and inhibitor doses. Supernatents are removed and stored at -80° C. until assayed for PGE2 by EIA (Amersham).
as §2

For a further test, the target named is T3, human recombinant COX-1 (Homo sapiens, UniProt P23219).
T3 construct: expressed in transfected cells; host or cells: Cos-A2 cells, stably transfected
T3 sequence (P23219 24-599): as above
The experiment in a line: COX-1 inhibition, COS cell assay. Type of test: cell-based. The conditions noted are these: for inhibition at 0.1 µM / inhibition at 1 µM / inhibition at 10 µM: COS, read-out: Inhibition of COX Enzymes in COS Cell Assays, COX-1 % inhibition. As for the experimental part: as §3, §2

pIC50: −log10 of the molar value.

The text below walks through data of patent US5741798A, “2-benzyl-4-sulfonyl-4H-isoquinolin-1,3-diones and their use as antiinflammatory agents” (priority 1997, dated 1998).

For `O=C1c2ccccc2C(S(=O)(=O)c2ccc(F)cc2)C(=O)N1Cc1ccccc1` (stereo not shown) [Example 18], in test [1], the inhibition at 0.1 µg/mL was 33%, the inhibition at 1 µg/mL stood at 66% and the inhibition at 10 µg/mL came to 81%. In test [2], the inhibition at 0.1 µg/mL is 48%, the inhibition at 1 µg/mL worked out at 76% and the inhibition at 10 µg/mL worked out at 92%.
Turning to `CC(C)(C)c1ccc(S(=O)(=O)C2C(=O)N(Cc3ccccc3)C(=O)c3ccccc32)cc1` (stereo not shown) [Example 17], in test [1], the inhibition at 0.1 µg/mL was found to be 20%, the inhibition at 1 µg/mL amounted to 12% and the inhibition at 10 µg/mL amounted to 39%. In test [2], the inhibition at 0.1 µg/mL is 17%, the inhibition at 1 µg/mL is 20% and the inhibition at 10 µg/mL was 45%.
Regarding `CC(C)S(=O)(=O)C1C(=O)N(Cc2ccc(F)c(F)c2)C(=O)c2ccccc21` (stereo not shown) [Example 9], in test [1], the inhibition at 0.1 µg/mL amounted to 8%, the inhibition at 1 µg/mL came to 75% and the inhibition at 10 µg/mL amounted to 80%. Also, in test [2], the inhibition at 0.1 µg/mL stood at 10%, the inhibition at 1 µg/mL stood at 17% and the inhibition at 10 µg/mL was found to be 57%. Also, the pIC50 at human recombinant COX-2 is 6.70. The pIC50 on human recombinant COX-1 (COS cells, COX-1, read-out: Inhibition of COX Enzymes in COS Cell Assays, COX-1 IC50) is 6.24.
On to `CCCCS(=O)(=O)C1C(=O)N(Cc2ccccc2)C(=O)c2ccccc21` (stereo not shown) [Example 4], for which, in test [1], the inhibition at 0.1 µg/mL is 0%, the inhibition at 1 µg/mL amounted to 30% and the inhibition at 10 µg/mL is 20%. In addition, in test [2], the inhibition at 0.1 µg/mL is 4%, the inhibition at 1 µg/mL came to 15% and the inhibition at 10 µg/mL was 15%.
In the case of `O=C1c2ccccc2C(S(=O)(=O)c2cccs2)C(=O)N1Cc1ccccc1` (stereo not shown) [Example 21], in test [1], the inhibition at 0.1 µg/mL is 12%, the inhibition at 1 µg/mL amounted to 46% and the inhibition at 10 µg/mL amounted to 48%. Also, in test [2], the inhibition at 0.1 µg/mL is 17%, the inhibition at 1 µg/mL worked out at 14% and the inhibition at 10 µg/mL turned out to be 67%. For the same compound, at human recombinant COX-2, the inhibition at 0.1 µM was 65%, the inhibition at 1 µM was 80% and the inhibition at 10 µM was 89%. Besides, at human recombinant COX-1, the inhibition at 0.1 µM was 35%, the inhibition at 1 µM was 67% and the inhibition at 10 µM came to 94%.
For `CC(C)S(=O)(=O)C1C(=O)N(Cc2cccc(Cl)c2)C(=O)c2ccccc21` (stereo not shown) [Example 6], in test [1], the inhibition at 0.1 µg/mL is 10%, the inhibition at 1 µg/mL amounted to 27% and the inhibition at 10 µg/mL worked out at 27%. For the same compound, in test [2], the inhibition at 0.1 µg/mL was -10%, the inhibition at 1 µg/mL was found to be 19% and the inhibition at 10 µg/mL amounted to 30%.
Take `O=C1c2ccccc2C(S(=O)(=O)c2ccc3ccccc3c2)C(=O)N1Cc1ccccc1` (stereo not shown) [Example 15]: in test [1], the inhibition at 0.1 µg/mL is -29%, the inhibition at 1 µg/mL was 14% and the inhibition at 10 µg/mL came to 34%. In test [2], the inhibition at 0.1 µg/mL amounted to 23%, the inhibition at 1 µg/mL was 24% and the inhibition at 10 µg/mL came out at 57%.
For the compound `O=C1c2ccccc2C(S(=O)(=O)c2ccccc2)C(=O)N1Cc1ccccc1` (stereo not shown) [Example 12], in test [2], the inhibition at 0.1 µg/mL stood at 17%, the inhibition at 1 µg/mL was 59% and the inhibition at 10 µg/mL was found to be 74%. Also, at human recombinant COX-1, the inhibition at 0.1 µM amounted to 22%, the inhibition at 1 µM worked out at 61% and the inhibition at 10 µM is 85%.
For `O=C1c2ccccc2C(S(=O)(=O)c2ccc(Br)cc2)C(=O)N1Cc1ccccc1` (stereo not shown) [Example 13], in test [1], the inhibition at 0.1 µg/mL stood at 28%, the inhibition at 1 µg/mL is 92% and the inhibition at 10 µg/mL worked out at 100%. Besides, in test [2], the inhibition at 0.1 µg/mL stood at 44%, the inhibition at 1 µg/mL came to 74% and the inhibition at 10 µg/mL turned out to be 100%.
Regarding `CCCS(=O)(=O)C1C(=O)N(Cc2ccccc2)C(=O)c2ccccc21` (stereo not shown) [Example 3], in test [1], the inhibition at 0.1 µg/mL was -6%, the inhibition at 1 µg/mL was 15% and the inhibition at 10 µg/mL amounted to 27%. In addition, in test [2], the inhibition at 0.1 µg/mL is -9%, the inhibition at 1 µg/mL was 22% and the inhibition at 10 µg/mL turned out to be 33%.
With `CC(C)S(=O)(=O)C1C(=O)N(Cc2ccccc2F)C(=O)c2ccccc21` (stereo not shown) [Example 2, 2-(2-Fluorobenzyl)-4-(1-methylethyl)sulfonyl-4H-isoquinoline-1,3-dione], in test [1], the inhibition at 0.1 µg/mL is 10%, the inhibition at 1 µg/mL amounted to 37% and the inhibition at 10 µg/mL was 49%. In test [2], the inhibition at 0.1 µg/mL is -1%, the inhibition at 1 µg/mL came to 14% and the inhibition at 10 µg/mL was found to be 18%. Moreover, on human recombinant COX-2, the inhibition at 1 µM worked out at 45% and the inhibition at 10 µM turned out to be 46%. On human recombinant COX-1, the inhibition at 1 µM turned out to be 33% and the inhibition at 10 µM is 39%.
Turning to `O=C1c2ccccc2C(S(=O)(=O)c2ccc([N+](=O)[O-])cc2)C(=O)N1Cc1ccccc1` (stereo not shown) [Example 20], in test [1], the inhibition at 0.1 µg/mL stood at 20%, the inhibition at 1 µg/mL worked out at 37% and the inhibition at 10 µg/mL was 46%. Also, in test [2], the inhibition at 0.1 µg/mL stood at 21%, the inhibition at 1 µg/mL came out at 41% and the inhibition at 10 µg/mL was 62%.
Take `CC(C)S(=O)(=O)C1C(=O)N(Cc2ccc(Cl)cc2)C(=O)c2ccccc21` (stereo not shown) [Example 7]: in test [1], the inhibition at 0.1 µg/mL is 3%, the inhibition at 1 µg/mL was 62% and the inhibition at 10 µg/mL was 67%. In test [2], the inhibition at 0.1 µg/mL is -3%, the inhibition at 1 µg/mL worked out at 4% and the inhibition at 10 µg/mL is 36%. Besides, at human recombinant COX-2, the inhibition at 0.1 µM is 26%, the inhibition at 1 µM came to 52% and the inhibition at 10 µM was 74%. On human recombinant COX-1, the inhibition at 0.1 µM stood at 6%, the inhibition at 1 µM is 46% and the inhibition at 10 µM was 72%.
`Cc1ccc(S(=O)(=O)C2C(=O)N(Cc3ccccc3)C(=O)c3ccccc32)cc1` (stereo not shown) [Example 14]: in test [1], the inhibition at 0.1 µg/mL is -13%, the inhibition at 1 µg/mL stood at 63% and the inhibition at 10 µg/mL is 100%. Further, in test [2], the inhibition at 0.1 µg/mL is 59%, the inhibition at 1 µg/mL was found to be 93% and the inhibition at 10 µg/mL amounted to 100%.
For `COc1ccc(S(=O)(=O)C2C(=O)N(Cc3ccccc3)C(=O)c3ccccc32)cc1` (stereo not shown) [Example 16], in test [1], the inhibition at 0.1 µg/mL is 21%, the inhibition at 1 µg/mL amounted to 74% and the inhibition at 10 µg/mL is 97%. Besides, in test [2], the inhibition at 0.1 µg/mL amounted to 33%, the inhibition at 1 µg/mL stood at 81% and the inhibition at 10 µg/mL turned out to be 93%.
Consider `CC(C)S(=O)(=O)C1C(=O)N(Cc2ccc(F)cc2)C(=O)c2ccccc21` (stereo not shown) [Example 8], for which, in test [1], the inhibition at 0.1 µg/mL is -1%, the inhibition at 1 µg/mL came out at 68% and the inhibition at 10 µg/mL was determined as 86%. Also, the pIC50 at human recombinant COX-2 is 7.05.
Consider `O=C1c2ccccc2C(S(=O)(=O)c2ccc(Cl)cc2)C(=O)N1Cc1ccccc1` (stereo not shown) [Example 19], for which, in test [1], the inhibition at 0.1 µg/mL turned out to be 59%, the inhibition at 1 µg/mL is 89% and the inhibition at 10 µg/mL amounted to 93%. Moreover, in test [2], the inhibition at 0.1 µg/mL worked out at 52%, the inhibition at 1 µg/mL was 71% and the inhibition at 10 µg/mL stood at 89%.

Usually inhibition stands for the drop in the measured response relative to a control, in per cent. In general, pIC50 refers to the negative decadic logarithm of the IC50, by convention in mol/L.
